# Read-outs that look alike come from different tables or passages of the source.
# Columns and labels:
# [1] = Pharmacokinetic study of four steroidal saponins in rat plasma after oral administration of A. asphodeloides fractions (UPLC-MS/MS); assay type: in vivo, Sprague-Dawley rats; settings: for AUC(0-t) / half-life / Tmax / Cmax: male, Sprague-Dawley; for AUC(0-t) / half-life / Tmax / Cmax / T1/2: rat plasma, single oral dose, n = 6, mean ± S.D.; for AUC(0-t): read-out: AUC0–t; for half-life: read-out: T1/2 (converted); for Tmax: read-out: Tmax; for Cmax: read-out: Cmax; for shape of plasma concentration-time curve: after oral administration
# Experimental: The dried A. asphodeloides were chopped into slices before using. The A. asphodeloides was immersed in water (1:10, w/v) and extracted twice by refluxing for 2 h. After filtration, the supernatant was condensed to a certain volume under reduced pressure, and 95% ethanol was added to the water extract filtrates until the concentration of ethanol was 80%. The precipitate was filtered as the macromolecular fraction (MF), the ethanol supernatant was concentrated under reduced pressure to a certain volume under vacuum and then purified by gradient elution with water, 40% ethanol and 70% ethanol from an AB-8 MARO porous resin column and then the water-eluted fraction was combined with the 40% ethanol-eluted fraction as the small molecule fraction (SF) and the 70% ethanol eluted fraction was the A. asphodeloides saponins extract (ASE). All of the residues were lyophilized and the resulting dry powder was stored at 4 °C before usage. The contents of four steroidal saponins in ASE dry powder were measured quantitatively by the external standard method using the same chromatography conditions as described above. The contents of timosaponin BII, anemarsaponin BIII, timosaponin AIII and timosaponin E1 in ASE were 429.12, 89.81, 59.13 and 41.25 mg/g, respectively.
# Frozen plasma samples were unfrozen at room temperature and treated as follows: to each 200 µL plasma sample, 20 µL of IS (920 ng/mL ginsenoside Re) working solution and 600 µL of acetonitrile were added. After vortexing for 2 min and centrifugation at 13,000 rpm at 4 °C for 10 min the supernatant was transferred into a new tube and evaporated to dryness in a rotary evaporator at 39 °C and the residue was reconstituted in 100 µL of 0.1% formic acid–acetonitrile (50:50, v/v), vortexed for 2 min and centrifuged at 13,000 rpm at 4 °C for 10 min. The supernatant was transferred to an autosampler vial and an aliquot of 2 μL was injected onto the UPLC-MS/MS system for analysis.
# Male Sprague-Dawley rats (250–280 g) were obtained from the Shanghai Slac Laboratory Animal Co., Ltd. (Shanghai, China). All animals were kept in an environmentally controlled breeding room (temperature: 20–25 °C, humidity: 55%–65%) for 1 week before the experiments started. Animal welfare and experimental procedures were strictly in accordance with the ethical norms of the Nanjing University of Chinese Medicine. All rats were fasted for 12 h with free access to water prior to the experiments, twenty-four rats were divided into four groups and then were given a single dose of ASE, ASE-SF, AS-MF, AS-M-SF. A 40 mg/mL ASE (the amount of MF, SF added to group AS-MF, ASE-SF, AS-M-SF were based on the proportion extracted from A. asphodeloides) aqueous solution in each group was administered orally at a dose of 400 mg/kg, which contained 171.61, 35.92, 23.62, 16.53 mg/kg of timosaponin BII, anemarsaponin BIII, timosaponin AIII, timosaponin E1, respectively.
# About 400 μL blood samples were collected from venipuncture before intragastric gavage and at 0.083, 0.25, 0.5, 1, 1.5, 2, 4, 6, 8, 10, 12, 24 h after a single oral administration. The blood samples were immediately transferred to heparinized tubes and centrifuged at 3000 rpm for 10 min, and the supernatant was transferred into 2.0 mL Eppendorf tubes and stored at −80 °C prior to analysis. Blank plasma was obtained from the rat without oral administration and was used to investigate the assay development and validation.
# To calculate the pharmacokinetic parameters of analytes in different group, concentrations–time dada were analyzed by DAS 3.2 software (Mathematical Pharmacology Professional Committee of China, Shanghai, China, 2011). Data were measured as the mean ± standard deviation (S.D.) with triplicate measurements. The identification of significances between different groups was executed with Student’s t-test. A p value < 0.05 was considered statistically significant.
# [2] = Stability of analytes in rat plasma QC samples (auto-sampler, long-term, freeze-thaw); assay type: in vitro ADME; settings: n = 6; for Stability, Auto-Sampler for 24 h, Mean: 4 °C; for Stability, Freeze–Thaw Cycles, Mean: three cycles −80 °C to room temperature
# Experimental: Stock solutions were separately prepared by dissolving the four accurately weighed standard reference compounds in a mixture of 50% acetonitrile. Then, the four stock solutions were mixed and diluted with 50% acetonitrile to prepare a final mixed standard solution containing 650.00 ng/mL of timosaponin BII, 620.00 ng/mL of anemarsaponin BIII, 485.00 ng/mL of timosaponin AIII, 530.00 ng/mL of timosaponin E1. A series of working solutions were freshly prepared by diluting mixed standard solution with 50% acetonitrile to the appropriate concentration. The internal standard solution of ginsenoside Re was prepared to the concentration of 920 ng/mL in 50% acetonitrile. For the validation of the method, three concentrations of standard solution containing timosaponin BII (5.20, 52.00 and 520 ng/mL), anemarsaponin BIII (4.96, 49.60 and 496.00 ng/mL), timosaponin AIII (3.88, 38.8 and 388 ng/mL), timosaponin E1 (4.24, 42.40 and 424.00 ng/mL) were used for preparing the QC plasma samples. The stability experiments were measured by analyzing replicates (n = 6) of three QC samples during the sample storing and processing procedures. For all stability experiments, freshly prepared stability testing QC samples were evaluated by using freshly prepared standard curve for the measurement. The post-preparation stability was tested by determined of the extracted QC samples stored in the auto-sampler (4 °C) for 24 h. The freeze and thaw stability were determined after three freeze-thaw cycles (−80 °C to room temperature). Long-term stability in rat plasma stored at −80 °C was studied for a period of one month.
# [3] = rat, plasma, po, 400 mg/kg, Group ASE (ASE 400 mg/kg)
# [4] = rat, plasma, po, 400 mg/kg, Group ASE-MF (ASE 400 mg/kg plus macromolecular fraction)
# [5] = rat, plasma, po, 400 mg/kg, Group ASE-MF
# [6] = rat, plasma, po, 400 mg/kg, Group ASE-SF (ASE 400 mg/kg plus small molecule fraction)
# [7] = rat, plasma, po, 400 mg/kg, Group ASE-SF
# [8] = high concentration (388.00–520.00 ng/mL)
# [9] = low concentration (3.88–5.20 ng/mL)
# [10] = middle concentration (38.80–52.00 ng/mL)
# [11] = rat, plasma, po, 400 mg/kg, Group ASE-SF-MF
SMILES,"AUC(0-t) [1, 3] [ng·h/mL]","Cmax [1, 3] [ng/mL]","half-life [1, 3] [h]","Tmax [1, 3] [h]","Cmax [1, 4] [ng/mL]","AUC(0-t) [1, 5] [ng·h/mL]","half-life [1, 5] [h]","Tmax [1, 5] [h]","Cmax [1, 6] [ng/mL]","half-life [1, 7] [h]","Tmax [1, 7] [h]",T1/2 ([1]; Group ASE-SF),shape of plasma concentration-time curve ([1]; rat),"Stability, Auto-Sampler for 24 h, Mean [2, 8] [%]","Stability, at −80 °C for 1 Month, Mean [2, 8] [%]","Stability, Freeze–Thaw Cycles, Mean [2, 8] [%]","Stability, Auto-Sampler for 24 h, Mean [2, 9] [%]","Stability, at −80 °C for 1 Month, Mean [2, 9] [%]","Stability, Freeze–Thaw Cycles, Mean [2, 9] [%]","Stability, Auto-Sampler for 24 h, Mean [2, 10] [%]",other results
"C[C@@H](CC[C@@]1(O)O[C@H]2C[C@H]3[C@@H]4CC[C@@H]5C[C@@H](O[C@@H]6O[C@H](CO)[C@H](O)[C@H](O)[C@H]6O[C@@H]6O[C@H](CO)[C@@H](O)[C@H](O)[C@H]6O)CC[C@]5(C)[C@H]4CC[C@]3(C)[C@H]2[C@@H]1C)CO[C@@H]1O[C@H](CO)[C@@H](O)[C@H](O)[C@H]1O [Timosaponin BII, timosaponin BII]",2040 ± 146,271 ± 22.5,3.21 ± 1.17,3.75 ± 1.78,287 ± 11.9,1980 ± 104,3.34 ± 1.19,3.41 ± 1.43,415 ± 41.8,3.63 ± 1.28,5 ± 1.67,no obvious difference,double peak,88.3,95.4,91.4,95.3,94.7,98.0,98.1,"AUC(0-t) ([1]; 400 mg/kg, Group ASE-SF-MF): 3310 ± 575 ng·h/mL; half-life ([1]; 400 mg/kg, Group ASE-SF-MF): 5.18 ± 1.88 h; Tmax ([1]; 400 mg/kg, Group ASE-SF-MF): 3.17 ± 2.21 h; AUC(0-t) [1, 7]: 3090 ± 628 ng·h/mL; Cmax ([1]; Group ASE-SF-MF (ASE 400 mg/kg plus small molecule and macromolecular fraction)): 400 ± 39.6 ng/mL; Stability, at −80 °C for 1 Month, Mean [2, 10]: 98.2%; Stability, Freeze–Thaw Cycles, Mean [2, 10]: 95.5%"
"C[C@H]1CC[C@@]2(OC1)O[C@H]1C[C@H]3[C@@H]4CC[C@@H]5C[C@@H](O[C@@H]6O[C@H](CO)[C@H](O)[C@H](O)[C@H]6O[C@@H]6O[C@H](CO)[C@@H](O)[C@H](O)[C@H]6O)CC[C@]5(C)[C@H]4CC[C@]3(C)[C@H]1[C@@H]2C [Timosaponin AIII, timosaponin AIII]",644 ± 59,65.2 ± 4.16,5.31 ± 3.03,5.66 ± 0.81,63.6 ± 3.16,688 ± 46.3,6.95 ± 6.23,4.33 ± 0.81,69.8 ± 2.86,8.2 ± 2.74,5.33 ± 1.03,significantly increased,single peak,96.4,99.0,102.8,100.9,100.4,102.2,97.0,"Cmax ([1]; rat, plasma, po, 400 mg/kg, Group ASE-SF-MF (ASE 400 mg/kg plus small molecule and macromolecular fraction)): 74 ± 6.18 ng/mL; AUC(0-t) [1, 11]: 890 ± 57.2 ng·h/mL; half-life [1, 11]: 8.94 ± 1.24 h; Tmax [1, 11]: 5.66 ± 0.81 h; Stability, at −80 °C for 1 Month, Mean [2, 10]: 101.7%; Stability, Freeze–Thaw Cycles, Mean [2, 10]: 96.2%"
